# Measured values taken from the NIST ThermoML archive (doi:10.1016/j.tca.2010.03.028).
# ± gives the expanded uncertainty stated by the source.
# Legend:
# [1] = xn = mol fraction of the nth substance listed; conditions: 308.15 K, 101 kPa, Liquid; for excess molar volume: Direct dilatometry; for speed of sound: Linear variable-path acoustic interferometer
# [2] = excess molar enthalpy (molar enthalpy of mixing); xn = mol fraction of the nth substance listed; conditions: 308.15 K, 101 kPa, Liquid, Calvet calorimetry
smiles,measurement,setting,value
C1CCOCC1 [tetrahydropyran] + CCCCCC,excess molar volume,[1]; x1 = 0.0328,1.4e-08 ± 2e-09 m3/mol
same,excess molar volume,[1]; x1 = 0.0459,1.9e-08 ± 2e-09 m3/mol
same,excess molar volume,[1]; x1 = 0.0694,2.7e-08 ± 2e-09 m3/mol
same,excess molar volume,[1]; x1 = 0.0785,3e-08 ± 2e-09 m3/mol
same,excess molar volume,[1]; x1 = 0.1294,4.4e-08 ± 2e-09 m3/mol
same,excess molar volume,[1]; x1 = 0.1561,4.9e-08 ± 2e-09 m3/mol
same,excess molar volume,[1]; x1 = 0.2753,6.4e-08 ± 2e-09 m3/mol
same,excess molar volume,[1]; x1 = 0.3262,6.6e-08 ± 2e-09 m3/mol
same,excess molar volume,[1]; x1 = 0.4629,6.2e-08 ± 2e-09 m3/mol
same,excess molar volume,[1]; x1 = 0.515,5.8e-08 ± 2e-09 m3/mol
same,excess molar volume,[1]; x1 = 0.6692,4.2e-08 ± 2e-09 m3/mol
same,excess molar volume,[1]; x1 = 0.7837,2.8e-08 ± 2e-09 m3/mol
same,excess molar volume,[1]; x1 = 0.8461,2e-08 ± 2e-09 m3/mol
same,excess molar volume,[1]; x1 = 0.9239,1e-08 ± 2e-09 m3/mol
same,speed of sound,[1]; x1 = 0.0981,1054 ± 3 m/s
same,speed of sound,[1]; x1 = 0.1578,1067 ± 3 m/s
same,speed of sound,[1]; x1 = 0.1965,1075 ± 3 m/s
same,speed of sound,[1]; x1 = 0.2955,1093 ± 3 m/s
same,speed of sound,[1]; x1 = 0.3313,1099 ± 3 m/s
same,speed of sound,[1]; x1 = 0.3955,1110 ± 3 m/s
same,speed of sound,[1]; x1 = 0.4469,1118 ± 3 m/s
same,speed of sound,[1]; x1 = 0.4947,1126 ± 3 m/s
same,speed of sound,[1]; x1 = 0.5211,1130 ± 3 m/s
same,speed of sound,[1]; x1 = 0.5955,1143 ± 3 m/s
same,speed of sound,[1]; x1 = 0.6955,1161 ± 3 m/s
same,speed of sound,[1]; x1 = 0.7311,1168 ± 3 m/s
same,speed of sound,[1]; x1 = 0.7965,1181 ± 3 m/s
same,speed of sound,[1]; x1 = 0.8992,1203 ± 3 m/s
same,excess molar enthalpy,[2]; x1 = 0.0581,0.0246 ± 0.000621 kcal/mol
same,excess molar enthalpy,[2]; x1 = 0.1073,0.044 ± 0.001 kcal/mol
same,excess molar enthalpy,[2]; x1 = 0.1962,0.075 ± 0.00165 kcal/mol
same,excess molar enthalpy,[2]; x1 = 0.2274,0.0844 ± 0.00186 kcal/mol
same,excess molar enthalpy,[2]; x1 = 0.3276,0.109 ± 0.00239 kcal/mol
same,excess molar enthalpy,[2]; x1 = 0.3888,0.12 ± 0.00263 kcal/mol
same,excess molar enthalpy,[2]; x1 = 0.4395,0.126 ± 0.00263 kcal/mol
same,excess molar enthalpy,[2]; x1 = 0.4968,0.13 ± 0.00287 kcal/mol
same,excess molar enthalpy,[2]; x1 = 0.522,0.131 ± 0.00287 kcal/mol
same,excess molar enthalpy,[2]; x1 = 0.5931,0.129 ± 0.00287 kcal/mol
same,excess molar enthalpy,[2]; x1 = 0.6634,0.121 ± 0.00263 kcal/mol
same,excess molar enthalpy,[2]; x1 = 0.7514,0.103 ± 0.00225 kcal/mol
same,excess molar enthalpy,[2]; x1 = 0.8124,0.0849 ± 0.00186 kcal/mol
same,excess molar enthalpy,[2]; x1 = 0.8997,0.0509 ± 0.00115 kcal/mol
C1CCOCC1 [tetrahydropyran] + C1CCCCC1,excess molar volume,[1]; x1 = 0.0648,9.1e-08 ± 2e-09 m3/mol
same,excess molar volume,[1]; x1 = 0.1372,1.72e-07 ± 3e-09 m3/mol
same,excess molar volume,[1]; x1 = 0.1954,2.24e-07 ± 3e-09 m3/mol
same,excess molar volume,[1]; x1 = 0.2351,2.53e-07 ± 3e-09 m3/mol
same,excess molar volume,[1]; x1 = 0.303,2.9e-07 ± 4e-09 m3/mol
same,excess molar volume,[1]; x1 = 0.3575,3.1e-07 ± 4e-09 m3/mol
same,excess molar volume,[1]; x1 = 0.4351,3.23e-07 ± 4e-09 m3/mol
same,excess molar volume,[1]; x1 = 0.4911,3.22e-07 ± 4e-09 m3/mol
same,excess molar volume,[1]; x1 = 0.5412,3.14e-07 ± 4e-09 m3/mol
same,excess molar volume,[1]; x1 = 0.6536,2.76e-07 ± 4e-09 m3/mol
same,excess molar volume,[1]; x1 = 0.721,2.4e-07 ± 3e-09 m3/mol
same,excess molar volume,[1]; x1 = 0.7952,1.9e-07 ± 3e-09 m3/mol
same,excess molar volume,[1]; x1 = 0.8827,1.17e-07 ± 3e-09 m3/mol
same,excess molar volume,[1]; x1 = 0.9325,7e-08 ± 2e-09 m3/mol
same,speed of sound,[1]; x1 = 0.0785,1209 ± 3 m/s
same,speed of sound,[1]; x1 = 0.161,1205 ± 3 m/s
same,speed of sound,[1]; x1 = 0.1965,1204 ± 3 m/s
same,speed of sound,[1]; x1 = 0.2477,1202 ± 3 m/s
same,speed of sound,[1]; x1 = 0.3378,1200 ± 3 m/s
same,speed of sound,[1]; x1 = 0.3879,1199 ± 3 m/s
same,speed of sound,[1]; x1 = 0.433,1199 ± 3 m/s
same,speed of sound,[1]; x1 = 0.4712,1199 ± 3 m/s
same,speed of sound,[1]; x1 = 0.5344,1200 ± 3 m/s
same,speed of sound,[1]; x1 = 0.5988,1202 ± 3 m/s
same,speed of sound,[1]; x1 = 0.6421,1203 ± 3 m/s
same,speed of sound,[1]; x1 = 0.7533,1209 ± 3 m/s
same,speed of sound,[1]; x1 = 0.8066,1212 ± 3 m/s
same,excess molar enthalpy,[2]; x1 = 0.0634,0.0319 ± 0.000765 kcal/mol
same,excess molar enthalpy,[2]; x1 = 0.1146,0.0546 ± 0.00122 kcal/mol
same,excess molar enthalpy,[2]; x1 = 0.2073,0.088 ± 0.00194 kcal/mol
same,excess molar enthalpy,[2]; x1 = 0.2734,0.106 ± 0.00232 kcal/mol
same,excess molar enthalpy,[2]; x1 = 0.3379,0.118 ± 0.00263 kcal/mol
same,excess molar enthalpy,[2]; x1 = 0.3805,0.123 ± 0.00263 kcal/mol
same,excess molar enthalpy,[2]; x1 = 0.4339,0.127 ± 0.00287 kcal/mol
same,excess molar enthalpy,[2]; x1 = 0.5322,0.126 ± 0.00263 kcal/mol
same,excess molar enthalpy,[2]; x1 = 0.6045,0.118 ± 0.00263 kcal/mol
same,excess molar enthalpy,[2]; x1 = 0.6848,0.103 ± 0.00225 kcal/mol
same,excess molar enthalpy,[2]; x1 = 0.7529,0.0864 ± 0.00189 kcal/mol
same,excess molar enthalpy,[2]; x1 = 0.7939,0.0744 ± 0.00165 kcal/mol
same,excess molar enthalpy,[2]; x1 = 0.8564,0.054 ± 0.00122 kcal/mol
same,excess molar enthalpy,[2]; x1 = 0.8976,0.0394 ± 0.000908 kcal/mol
